Reference: the NIST ThermoML archive (doi:10.1016/j.jct.2006.03.010)
Numbers after ± are expanded uncertainties.

What was measured:
[1] = 101 kPa, Liquid; for speed of sound: Linear variable-path acoustic interferometer
[2] = xn = mol fraction of the nth substance listed; settings: 101 kPa, Liquid, x2 = 0; for speed of sound: Linear variable-path acoustic interferometer

Row | SMILES | mass density ([1]; 298.15 K) [kg/m3] | viscosity ([1]; 298.15 K) [mPa·s] | speed of sound ([1]; 298.15 K) [m/s] | mass density ([1]; 308.15 K) [kg/m3] | viscosity ([1]; 308.15 K) [mPa·s] | speed of sound ([1]; 308.15 K) [m/s] | speed of sound ([2]; 298.15 K) [m/s] | mass density ([2]; 298.15 K) [kg/m3] | viscosity ([2]; 298.15 K) [mPa·s] | speed of sound ([2]; 308.15 K) [m/s] | mass density ([2]; 308.15 K) [kg/m3] | viscosity ([2]; 308.15 K) [mPa·s]
1 | CCCCO [butan-1-ol] | 806.33 ± 0.5 | 2.585 ± 0.034 | 1235 ± 3 | 798.38 ± 0.54 | 2.012 ± 0.028 | 1210 ± 3 |  |  |  |  |  | 
2 | CCCCO [butan-1-ol] + ClC(Cl)Cl |  |  |  |  |  |  | 1235 ± 3 | 806.33 ± 0.5 | 2.585 ± 0.034 | 1210 ± 3 | 798.38 ± 0.54 | 2.012 ± 0.028
3 | CCO [ethanol] | 784.32 ± 0.39 | 1.084 ± 0.014 | 1144 ± 3 | 775.51 ± 0.43 | 0.902 ± 0.013 | 1111 ± 3 |  |  |  |  |  | 
4 | CCO [ethanol] + ClC(Cl)Cl |  |  |  |  |  |  | 1144 ± 3 | 784.32 ± 0.39 | 1.084 ± 0.014 | 1111 ± 3 | 775.51 ± 0.43 | 0.902 ± 0.013
5 | CO [methanol] | 786.3 ± 0.39 | 0.551 ± 0.009 | 1109 ± 3 | 776.6 ± 0.43 | 0.493 ± 0.009 | 1076 ± 3 |  |  |  |  |  | 
6 | CO [methanol] + ClC(Cl)Cl |  |  |  |  |  |  | 1109 ± 3 | 786.3 ± 0.39 | 0.551 ± 0.009 | 1076 ± 3 | 776.6 ± 0.43 | 0.493 ± 0.009

Other lines, results leading:

Row | mass density ([1]; 298.15 K) [kg/m3] | viscosity ([1]; 298.15 K) [mPa·s] | speed of sound ([1]; 298.15 K) [m/s] | mass density ([1]; 308.15 K) [kg/m3] | viscosity ([1]; 308.15 K) [mPa·s] | speed of sound ([1]; 308.15 K) [m/s] | speed of sound ([2]; 298.15 K) [m/s] | mass density ([2]; 298.15 K) [kg/m3] | viscosity ([2]; 298.15 K) [mPa·s] | speed of sound ([2]; 308.15 K) [m/s] | mass density ([2]; 308.15 K) [kg/m3] | viscosity ([2]; 308.15 K) [mPa·s] | SMILES
7 | 800.82 ± 0.4 | 1.95 ± 0.024 | 1212 ± 3 | 792.51 ± 0.44 | 1.533 ± 0.02 | 1177 ± 3 |  |  |  |  |  |  | CCCO [propan-1-ol]
8 |  |  |  |  |  |  | 1212 ± 3 | 800.82 ± 0.4 | 1.95 ± 0.024 | 1177 ± 3 | 792.51 ± 0.44 | 1.533 ± 0.02 | CCCO [propan-1-ol] + ClC(Cl)Cl
9 | 1478.82 ± 1.2 | 0.556 ± 0.01 | 985 ± 3 | 1459.45 ± 1.2 | 0.513 ± 0.009 | 950 ± 2 |  |  |  |  |  |  | ClC(Cl)Cl [trichloromethane]
